Experimental findings from patent publication US4673684A, “Amide derivatives and 5-lipoxygenase inhibitors containing the same as an active ingredient” (Terumo Corporation, priority 1984, dated 1987) are described below.

pIC50: −log10 of the molar value.

In one assay the target is T1, 5-lipoxygenase (Mus musculus, UniProt P48999).
T1 construct: The supernatant is used as a 5-lipogenase enzyme solution; endogenous in cells
T1 sequence (P48999 1-674): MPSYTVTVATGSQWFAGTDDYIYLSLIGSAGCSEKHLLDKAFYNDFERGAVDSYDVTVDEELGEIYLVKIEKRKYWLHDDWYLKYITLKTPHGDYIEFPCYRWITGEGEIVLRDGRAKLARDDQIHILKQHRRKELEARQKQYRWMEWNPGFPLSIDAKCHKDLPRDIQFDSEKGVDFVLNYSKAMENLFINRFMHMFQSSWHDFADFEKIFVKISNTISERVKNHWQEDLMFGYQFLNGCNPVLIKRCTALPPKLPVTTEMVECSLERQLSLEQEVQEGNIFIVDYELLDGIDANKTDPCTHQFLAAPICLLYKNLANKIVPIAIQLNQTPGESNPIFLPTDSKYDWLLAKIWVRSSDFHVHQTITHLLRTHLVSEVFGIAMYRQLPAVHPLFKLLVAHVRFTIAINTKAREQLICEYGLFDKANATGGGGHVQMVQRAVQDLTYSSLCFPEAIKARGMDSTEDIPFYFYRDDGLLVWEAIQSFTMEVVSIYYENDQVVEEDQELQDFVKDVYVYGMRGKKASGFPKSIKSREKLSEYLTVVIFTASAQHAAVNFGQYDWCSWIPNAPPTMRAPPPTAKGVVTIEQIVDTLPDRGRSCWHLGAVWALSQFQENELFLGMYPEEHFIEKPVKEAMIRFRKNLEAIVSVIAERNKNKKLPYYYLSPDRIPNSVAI
As to the kind of experiment: 5-Lipoxygenase-inhibiting Activity (decrease in 5-HETE and LTB4 formed from radiolabelled arachidonic acid, enzyme solution from mouse mastcytoma cells P-815). The class given is biochemical.
Conditions: not given
The gist of the method:
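Enzyme is sonicated 10,000 rpm supernatant of P-815 mouse mastocytoma cells, reacted 5 min at 37 °C with radiolabelled arachidonic acid, indomethacin and CaCl2 in pH 7.4 phosphate buffer. 5-HETE and LTB4 separated by TLC and counted by scintillation; IC50 or IC30 is concentration reducing product to 50% or 30% of control.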
The compound `COc1cc(/C=C/C(=O)N2CCN(CCOC(c3ccccc3)c3ccccc3)CC2)cc(OC)c1O` [Example 79, N-[3-(3,5-dimethoxy-4-hydroxyphenyl) -2-propenoyl]-N'-(2-benzhydroxyethyl)piperazine] showed a pIC50 of 7.40.

The same assay, now with this note: 5-HETE and LTB4 formation; mouse mastcytoma P-815 enzyme solution; 37° C., 5 min; pH 7.4; with indomethacin; read-out: 50% Inhibitory concentration IC50.
With `COc1cc(/C=C/C=C/C(=O)NCCCCNC(C)=O)ccc1O` [Example 18, N-{5-(3-methoxy-4-hydroxyphenyl)-2,4-pentadienoyl}-N'-acetyl-1,4-diaminobutane], the pIC50 was 5.22. Still for that read-out and setting: the result for `O=C(/C=C/c1ccc(O)c(O)c1)NCCCCN1CCN(C(c2ccccc2)c2ccccc2)CC1` [Example 64, N-[4-[3-,4-(3,4-dihydroxyphenyl)-2-propenoyl]aminobutyl]N'-benzhydrylpiperazine] reads 7.52. Take `COc1cc(/C=C/C=C/C(=O)N2CCN(CCn3cnc4c3c(=O)n(C)c(=O)n4C)CC2)cc(OC)c1OC` [Example 115, 7-[2-[4-[5-(3,4,5-trimethoxyphenyl)-2,4-pentadienoyl]piperazin-1-yl]ethyl]theophylline]: the pIC50 is 4.70.

With `O=C(/C=C/c1ccc(O)c(O)c1)NCCN1CCN(C(c2ccccc2)c2ccc(Cl)cc2)CC1` (centres unmarked) [Example 12, N-(p-chlorobenzhydryl)-N'-[2-{3-(3,4-dihydroxyphenyl)-2-propenoyl}aminoethyl]piperazine], the pIC50 was 7.10. For the compound `COc1cc(/C=C/C(=O)N2CCN(CCCn3cnc4c3c(=O)n(C)c(=O)n4C)CC2)ccc1O` [Example 123], the pIC50 was 5.00.

On to `O=C(/C=C/C=C/c1ccc(O)c(O)c1)N1CCN(CCCOC(c2ccccc2)c2ccccc2)CC1` [Example 85, N-[5,[3,4-hydroxyphenyl]-2,4-pentadienoyl]-N'-(3-benzhydroxypropyl)piperazine], for which the pIC50 was 7.52. For the compound `COc1cc(/C=C/C(=O)NCCCN2CCC(OC(c3ccccc3)c3ccccc3)CC2)cc(OC)c1O` [Example 126, 1-[3-{3-(3,5-dimethoxy-4-hydroxyphenyl)-2-propenoyl}aminopropyl]-4-benzhydroxypiperidine], the pIC50 is 8.00.

Consider `O=C(/C=C/C=C/c1ccc2c(c1)OCO2)NCCCN1CCN(C(c2ccccc2)c2ccccc2)CC1` [Example 62, N-[3-[5-(3,4,-methylenedioxyphenyl)-2,4-pentadienoyl]aminopropyl]-N'-benzhydrylpipeerazine], for which the pIC50 is 5.70.

As for `O=C(/C=C/C=C/c1ccc(O)c(O)c1)Nc1ccccc1C(=O)O` [Example 24, N-5-(3,4-dihydroxyphenyl)-2,4-pentadienoylanthranilic acid], the pIC50 was 7.00. For `CC/C=C\C/C=C\C/C=C\CCCCCCCC(=O)NCCCCNC(=O)/C=C/c1ccc(O)c(OC)c1` [Example 3, N-[3-(3-methoxy-4-hydroxyphenyl)-2-propenoyl]-N'-[9,12,15-octadecatrienoyl]-1,4-diaminobutan], the pIC50 is 6.05.

Turning to `O=C(/C=C/C=C/c1ccc(O)c(O)c1)NCCN1CCN(C(c2ccccc2)c2ccc(Cl)cc2)CC1` (centres unmarked) [Example 28], the pIC50 was 8.00. On the same count and under the same terms, under `O=C(/C=C/C=C/c1ccc2c(c1)OCO2)NCCN1CCN(C(c2ccccc2)c2ccccc2)CC1` [Example 61, N-[2-[5-(3,4-methylenedioxyphenyl)-2,4-pentadienoyl]aminoethyl]-N'-benzhydrylpiperazine] stands 5.52. Take `COc1cc(/C=C/C=C/C(=O)NCCCCN2CCC(OC(c3ccccc3)c3ccccc3)CC2)cc(OC)c1O` [Example 133, 1-[4-[5-(3,5-dimethoxy-4-hydroxyphenol)-2,4-pentadienoyl]aminobutyl]-4-benzydroxypiperidine]: the pIC50 was 7.70.

Consider `O=C(/C=C/C=C/c1ccc(O)c(O)c1)N1CCN(C(c2ccccc2)c2ccccc2)CC1` [Example 26], for which the pIC50 was 7.40. On the same count and under the same terms, under `CC/C=C\C/C=C\C/C=C\C/C=C\C/C=C\C/C=C\CCC(=O)NCCCCNC(=O)/C=C/c1ccc(O)c(O)c1` [Example 6, N-[3-(3,4-dihydroxyphenyl)-2-propenoyl]-N'-[4,7,10,13,16,19-docosahexaenoyl]1,4-diaminobutane] stands 7.22. On the same count and under the same terms, under `O=C(/C=C/c1ccc(O)c(O)c1)Nc1cc(Cl)ccc1O` [Example 10, N-{3-(3,4-dihydroxyphenyl)-2-propenoyl}-5-chloro-2-hydroxyaniline] stands 7.52; under `COc1cc(/C=C/C(=O)NCCN2CCC(OC(c3ccccc3)c3ccccc3)CC2)ccc1O` [Example 116, 1-[2-[3-(3-methoxy-4-hydroxyphenyl)-2-propenoyl]aminoethyl]-4-benzhydroxypiperidine], 6.40. On the same count and under the same terms, under `O=C(/C=C/C=C/c1ccc(O)c(O)c1)NCCCCN1CCC(OC(c2ccccc2)c2ccccc2)CC1` [Example 129, 1-[4-[5-(3,4-dihydroxyphenyl)-2,4-pentadienoyl]aminobutyl]-4-benzhydroxypiperidine] stands 7.70; under `COc1cc(/C=C/C=C/C(=O)NCCCN2CCN(C(c3ccccc3)c3ccccc3)CC2)cc(OC)c1O` [Example 55], 7.52. Take `COc1ccc(/C=C/C=C/C(=O)NCCN2CCN(C(=O)c3ccccc3N)CC2)cc1OC` [Example 48, N-(o-aminobenzoyl)-N'-[{5-(3,4-dimethoxyphenyl)-2,4-pentadienoyl}aminoethyl]piperazine]: the pIC50 is 5.22. For the compound `COc1cc(/C=C/C(=O)NCCCCN2CCN(C(c3ccccc3)c3ccccc3)CC2)cc(OC)c1O` [Example 78, N-benzyhdryl-N'-3-(3,5-dimethoxy-4-hydroxy)phenyl-2-propenoylaminobutylpiperazine], the pIC50 is 7.52. Still for that read-out and setting: under `Cn1c(=O)c2c(ncn2CCCN2CCN(C(=O)/C=C/C=C/c3ccc(O)c(O)c3)CC2)n(C)c1=O` [Example 128, 7-[3-[4-[5-(-dihydroxyphenyl)-2,4-pentadienoyl]piperazi-1-nyl]-1-propyl]theophylline] stands 6.00. On the same count and under the same terms, the result for `COc1cc(/C=C/C(=O)NCCCN2CCN(C(c3ccccc3)c3ccccc3)CC2)ccc1O` [Example 34] reads 6.52; that for `COc1cc(/C=C/C=C/C(=O)NCCCCN2CCN(C(c3ccccc3)c3ccccc3)CC2)cc(OC)c1O` [Example 97, N-benzhydryl-N'-[4-[5-(3,5-dimethoxy-4-hydroxy)phenyl-2,4-pentadienoyl]aminobutyl]], 7.40; that for `COc1cc(/C=C/C=C/C(=O)NCCOC(c2ccccc2)c2ccccc2)ccc1O` [Example 91, 2-[5-(3-methoxy-4-hydroxy)phenyl-2,4-pentadienoyl]aminoethyl benzhydryl ether], 7.22. With `COc1cc(/C=C/C=C/C(=O)NCCn2cnc3c2c(=O)n(C)c(=O)n3C)ccc1O` [Example 88], the pIC50 was 5.40. Same read-out and setting: the result for `O=C(/C=C/c1ccc(O)c(O)c1)N1CCN(C(c2ccccc2)c2ccccc2)CC1` [Example 8, N-benzhydryl-N'-{(3,4-dihydroxyphenyl)-2-propenoyl}-piperazine] reads 7.00; that for `COc1cc(/C=C/C=C/C(=O)NCCN2CCC(OC(c3ccccc3)c3ccccc3)CC2)cc(OC)c1O` [Example 120, 1-[2-[5-(3,5-dimethoxy-4-hydroxyphenyl)-2,4-pentadienoyl]aminoethyl]-4-benzhydroxypiperidine], 8.00. Still for that read-out and setting: the result for `COc1cc(/C=C/C=C/C(=O)N2CCN(CCCCn3cnc4c3c(=O)n(C)c(=O)n4C)CC2)ccc1O` [Example 130] reads 6.00. Take `COc1cc(/C=C/C=C/C(=O)N2CCN(C(c3ccccc3)c3ccccc3)CC2)ccc1O` [Example 15, 1-benzhydryl-4-{5-(3-methoxy-4-hydroxyphenyl)-2,4-pentadienoyl}piperazene]: the pIC50 was 7.05.

Turning to `COc1cc(/C=C/C=C/C(=O)NCCN2CCN(C(c3ccccc3)c3ccccc3)CC2)cc(OC)c1O` [Example 53, N-[2-[5-(3,5-dimethoxy-4-hydroxyphenyl)-2,4-pentadienoyl]aminoethyl]-N'-benzhydrylpiperazine], the pIC50 was 7.70. Still for that read-out and setting: the result for `COc1ccc(/C=C/C(=O)N2CCN(CCCOC(C)(c3ccccc3)c3ccc(Cl)cc3)CC2)cc1OC` (centres unmarked) [Example 104, N-[3-(3,4-dimethoxy)phenyl-2-propenoyl]-N'-[3-[1-phenyl-1-(p-chlorophenyl)ethoxy]propyl]piperazine] reads 5.00; that for `CC(=O)NCCCCNC(=O)/C=C/C=C/c1ccc(O)c(O)c1` [Example 20, N-{5-(3,4-dihydroxyphenyl)-2,4-pentadienoyl}-N'-acetyl-1,4-diaminobutane], 6.00. Same read-out and setting: the result for `O=C(/C=C/C=C/c1ccc(O)c(O)c1)NCCCN1CCN(C(c2ccccc2)c2ccc(Cl)cc2)CC1` (centres unmarked) [Example 45, N-(p-chlorobenzhydryl)-N'-[{5-(3,4-dihydroxyphenyl)-2,4-pentadienoyl}-aminopropyl]piperazine] reads 7.22.
